Test results reported in patent US11712443B2, “17α-monoesters and 17α,21-diesters of cortexolone for use in the treatment of tumors” (COSMO TECHNOLOGIES LTD., priority 2014, dated 2023).

How the values were obtained:
[1] = In vitro metabolism in rat plasma; format: in vitro ADME; conditions: 37 C; liquid chromatography; FIG. 13
Method: (§1) To obtain some insights on the metabolism of CB-03-10 in human and rat plasma, a specific assay was designed. Briefly the compound was incubated at different time in human and rat plasma at 37 C. After incubation the samples were tested for presence of the intact compound by liquid chromatography.

Panc1 = conditions: human, 3 days
Caspase 8 and Caspase 9 = test: Caspase activity assay in MiaPaca2 cells; format: cell-based; conditions: 20 or 50 μM, evident after 8 hours, corrected for viable cells
Method: To better analyze the phenomenon the enzymatic activity of Caspase 8 (initiator caspase for Extrinsic Pathway) and Caspase 9 (initiator caspase for Intrinsic Pathway) and of Caspases 3 and 7 (effector caspases) were measured.
After 8, 24, & 48 hours incubation with test compounds, cells were lysed in buffer containing the caspase 3/7 or 8 or 9 substrate and a stable luciferase in proprietary buffers. The lysates were transferred to white opaque plates before measuring luminescence in a Tecan S afire instrument. Parallel plates treated identically, were used to determine viable cells. All caspase activities were corrected for the number of viable cells.

[2] = tested on: LNCaP prostate cancer xenograft; test: Human prostate cancer xenograft in nude mice, oral treatment; format: in vivo
Method: 3×10^6 LNCaP cells suspended in matrigel were subcutaneously injected (on the right flank) into 6 week old male athymic nude mice. Tumors were measured as described above. Treatment with CB-03-10 and controls compounds was initiated after the tumor had reached 50 mm3. […] Oral dosing was daily (100 mg/Kg in 200 μL/mouse) for 28 consecutive days. Results were plotted as average change in tumor volume relative to the start of treatment.

stimulated PBMC = test: IC50 on stimulated PBMC (actively dividing cells)
Method: The IC^50 in PBMC were tested in 2 different activation status:
stimulated—actively dividing cells
IC50 of the compounds was determined on fresh cells isolated from human blood (PBMC). The compounds toxicity was determined as follow: Therapeutic Index=Safety/Potency=IC50 stimulated PBMC_/IC50 cancer cell

[3] = In vivo pharmacokinetic in mouse plasma; conditions: mice; iv 20 mg/kg, SC 40 mg/kg, PO 40 mg/kg; after 1 hour
Method: The pharmacokinetic of CB-03-10 was evaluated in plasma of mice after intravenous (IV), subcutaneous (SC) and oral administration (PO).
Mice (3 per group) were administered with the following doses, blood was collected at the indicated times. Plasma samples were analyzed by HPLC-MS/MS.

MCF7 = test: In vitro proliferation / cytotoxic assay on breast cancer cells (cell titer glo); conditions: human, 3 days
Method: For the cytotoxic assay: cells seeded in 96 well flat bottom culture plates in media containing charcoal stripped serum. After 24 hours test compounds were added to the cells. DMSO was used as the vehicle negative control and RU486 as the positive control. After 72 hours incubation cell were harvested, lysed and viability determined using the cell titer glow assay for viability.

Glucocorticoid Receptor [4] = target: T1, Glucocorticoid Receptor (Homo sapiens, UniProt P04150); test: GR transcriptional reporter assay, antagonist mode; format: cell-based; conditions: inhibition of luminescence induced by Dexamethasone; compared to RU486; FIG. 7
T1 construct: endogenous in cells; host or cells: human kidney epithelial cells
T1 sequence (P04150 1-777): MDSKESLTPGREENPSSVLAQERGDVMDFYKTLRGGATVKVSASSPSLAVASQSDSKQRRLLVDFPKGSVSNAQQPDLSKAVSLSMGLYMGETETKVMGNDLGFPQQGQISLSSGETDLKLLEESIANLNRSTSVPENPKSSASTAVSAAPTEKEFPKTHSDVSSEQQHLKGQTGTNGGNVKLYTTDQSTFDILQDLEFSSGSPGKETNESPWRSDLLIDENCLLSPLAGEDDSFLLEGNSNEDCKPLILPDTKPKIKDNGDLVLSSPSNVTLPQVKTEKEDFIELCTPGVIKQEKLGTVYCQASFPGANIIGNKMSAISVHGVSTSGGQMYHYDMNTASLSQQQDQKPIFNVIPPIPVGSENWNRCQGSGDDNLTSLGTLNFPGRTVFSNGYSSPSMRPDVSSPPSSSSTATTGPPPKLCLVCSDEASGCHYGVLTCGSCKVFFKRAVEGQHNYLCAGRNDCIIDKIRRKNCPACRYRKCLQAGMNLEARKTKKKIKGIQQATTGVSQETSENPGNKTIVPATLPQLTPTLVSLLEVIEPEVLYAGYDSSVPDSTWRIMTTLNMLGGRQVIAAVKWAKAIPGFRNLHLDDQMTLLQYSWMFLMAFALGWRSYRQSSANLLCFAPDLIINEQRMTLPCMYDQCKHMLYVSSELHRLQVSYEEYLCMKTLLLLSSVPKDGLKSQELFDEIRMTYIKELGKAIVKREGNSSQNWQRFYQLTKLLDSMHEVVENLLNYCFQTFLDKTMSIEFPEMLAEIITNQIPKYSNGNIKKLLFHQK
Method: (§2) The androgen and glucocorticoid hormones elicit divergent and often opposing effects in cells, tissues, and animals. […] CB-03-10 GR antagonist and agonist activities were tested in an in vitro assay. Briefly, human kidney epithelial cells were transfected with DNA construct containing GR binding sites linked to luminescent based reporter molecule. After 24 hours, cells were treated under antagonist or agonist modes. After an additional 24 hours, luminescence which is proportional to GR agonist transcriptional activity was quantitated.
Antagonist Assay was based on inhibition of luminescence induced by Dexamethasone (Dex).
The antagonist activity of CB-03-10 was compared to a known GR antagonist, Mifepristone (also called RU486) as shown in FIG. 7.

[5] = In vitro metabolism in human plasma; format: in vitro ADME; conditions: 37 C; liquid chromatography; FIG. 13
Method: as §1

BxPC3 = conditions: human, 3 days
MiaPaca2 = conditions: human, 3 days
HT29 = test: MTT colorimetric assay, 72 h; format: cell-based; conditions: human, 72 h
Method: The experiment was performed to test and define anticancer activity in vitro of Cortexolone 17α-benzoate and cortexolone 17α-valerate-21-propionate on cell lines representatives of epithelial intestinal tumors, namely HT29. The experiment method consisted in: • 1. Monolayer HT-29 cells were plated in: 96-wells plates at the density of 2×10^4 cells/mL. The cells plated were kept at 37° C. in 5% CO2 and left to attach for 24 h. • 2. […] After 72 h of treatment, the MTT colorimetric assay was performed.

Glucocorticoid Receptor [6] = target: T1, Glucocorticoid Receptor; test: GR transcriptional reporter assay, agonist mode; format: cell-based
Method: as §2
Agonist Assay—was based on induction of luminescence by CB-03-10
The agonist activity of CB-03-10 was compared to a RU486 which is known to not have agonist activity.

With `CCCCC(=O)O[C@]1(C(=O)COC(=O)CC)CC[C@H]2[C@@H]3CCC4=CC(=O)CC[C@]4(C)[C@H]3CC[C@@]21C` [CB-03-10, cortexolone 17α-valerate-21-propionate] the “degradation in rat plasma” value [1] was “degraded more rapidly in rat compared to human plasma”, the “TI on Resting PBMC” value (Panc1) was 2 and the “TI on Stimulated PBMC” value (Panc1) was 2. For the same molecule, the “Therapeutic Index = IC50 resting PBMC/IC50 cancer cell” value (Panc1) was 2, the “Therapeutic Index = IC50 stimulated PBMC/IC50 cancer cell” value (Panc1) was 2 and the “caspase 8 and 9 activity, increase compared to control” value (Caspase 8 and Caspase 9) was at most 7 fold. For the same molecule, the “average tumor volume, times smaller than in the vehicle group” value ([2]; 6 weeks after treatment was stopped) was 3.6 times, the “prostate tumor size increase after treatment was stopped” value ([2]; oral 100 mg/Kg daily 28 days, after stop) was 5 fold and the “tumor volume increase relative to start of treatment” value ([2]; oral 100 mg/Kg daily, treatment period of 28 days, negative control 10-fold) was 2 fold. For the same molecule, the “statistical significance of tumor growth versus vehicle” value ([2]; oral gavage, FIG. 16) was “statistically significantly different from day 7 up to day 60”, the “Therapeutic Index = IC50 resting PBMC/IC50 cancer cell” value (stimulated PBMC; PBMC Stim, healthy lymphocyte, Table IV) was 1 and the “Therapeutic Index = IC50 stimulated PBMC/IC50 cancer cell, AVERAGE” value (stimulated PBMC; average across the 7 cancer cell lines, Table VII) was 4. The “plasma level of intact compound” value [3] was “undetectable”, the “Therapeutic Index = IC50 resting PBMC/IC50 cancer cell” value (MCF7) was 3 and the “Therapeutic Index = IC50 stimulated PBMC/IC50 cancer cell” value (MCF7) was 3. For the same molecule, the GR antagonist activity (Glucocorticoid Receptor [4]) was “potent antagonist (10 times less than RU486)”, the “degradation in human plasma” value [5] was “rapidly degraded to CB-03-05 in human plasma” and the “Therapeutic Index = IC50 resting PBMC/IC50 cancer cell” value (BxPC3) was 3. For the same molecule, the “Therapeutic Index = IC50 stimulated PBMC/IC50 cancer cell” value (BxPC3) was 3, the “TI on Resting PBMC” value (MiaPaca2) was 3 and the “TI on Stimulated PBMC” value (MiaPaca2) was 3. For the same molecule, the “Therapeutic Index = IC50 resting PBMC/IC50 cancer cell” value (MiaPaca2) was 3, the “Therapeutic Index = IC50 stimulated PBMC/IC50 cancer cell” value (MiaPaca2) was 3 and the “Therapeutic Index (TI), Stimulated PBMC” value (HT29) was 3. The “GR agonist activity relative to that of 50 nM Dex” value (Glucocorticoid Receptor [6]; at very high concentrations) was 20% and the GR agonist activity (Glucocorticoid Receptor [6]; induction of luminescence, FIG. 8) was “essentially ineffective as GR agonist”.
